Measurements as given in patent US10654917B2, “Antibody molecules and peptide delivery systems for use in alzheimer's disease and related disorders” (TECHNOPHAGE, INVESTIGAÇĀO E DESENVOLVIMENTO EM …, priority 2015, dated 2020).
Where two headings read alike, the source gives them in different places.

How the values were obtained:
[1] = Partition coefficient (log Po/w) of radiopeptides; format: physicochemical
Source text: Table 7 lists each peptide's name, isoelectric point (PI), charge (number of positive residues), calculated mass (in Da), and ion found; as well as the name, calculated mass, and found ion for the corresponding conjugate; and also retention times in HPLC and the partition coefficient (log Po/w). These values allowed the determination of the hydrophilic nature of peptides, where pepH1 and pepH4 were identified as the most hydrophilic peptides.

[2] = Biodistribution of technetium-labelled peptides; format: in vivo, CD1 mice; details: iv, 80 ug/mouse, total radioactivity, 80 μg/mouse
Protocol: To evaluate the capacity to cross the BBB in vivo, the selected peptides, pepH1 and pepH3, were analyzed for biodistribution in CD1 mice. The peptides were labelled with technetium at a final concentration of 8.5×10^−5 M and diluted in PBS. CD1 mice were injected (iv injection, tail vein). The mice were sacrificed by cervical dislocation after 5 and 60 minutes of incubation. The tissues of interest were dissected and washed to remove excess blood, weighed, and measured for radioactivity. Technetium radioactivity of the different peptides was measured for different organs.
Initial results are presented in Table 11, where “% I.A. refers to the “% injected activity”, that is, the amount of radioactivity measured in a given organ compared to the total originally injected.
The biodistribution studies were repeated, using higher doses of each peptide, specifically, a one hundred fold increase, as well as using PepH2 as a negative control, and allowing incubation for 2 minutes and 60 minutes. Tissue biodistribution profile in percentage of injected radiopeptide activity per gram of tissue/organ was measured and results are presented in Table 12.

In the case of CSCC[C@H](NC(=O)[C@H](Cc1ccccc1)NC(=O)[C@H](CC(C)C)NC(=O)[C@H](CCCCN)NC(=O)CCCN(CCN)CCn1nc(C)c(CC(=O)O)c1C)C(=O)N[C@@H](C)C(=O)N[C@@H](CC(C)C)C(=O)N[C@H](C(=O)N[C@@H](C)C(=O)N[C@@H](Cc1ccccc1)C(=O)N[C@@H](CC(C)C)C(=O)N[C@@H](CCCNC(=N)N)C(=O)N[C@@H](Cc1ccccc1)C(=O)N[C@@H](CC(C)C)C(=O)N[C@H](C(=O)O)[C@@H](C)O)C(C)C [^99mTc(CO)3-Pz^1-pepH2, metal not drawn], the “log Po/w of radiopeptides” value [1] is reported as 0.65 ± 0.13, the tissue uptake at 2 min ([2]; CD1, blood, read-out: injected activity in Blood) is reported as 8.9 ± 0.6 %ID/g and the tissue uptake at 1 h ([2]; CD1, blood, 1 hour, read-out: injected activity in Blood) is reported as 3.8 ± 0.2 %ID/g. For the same molecule, the tissue uptake at 2 min ([2]; CD1, bone, read-out: injected activity in Bone) was 1.6 ± 0.1 %ID/g, the tissue uptake at 1 h ([2]; CD1, bone, 1 hour, read-out: injected activity in Bone) was 1.4 ± 0.1 %ID/g and the tissue uptake at 2 min ([2]; CD1, brain, read-out: injected activity in Brain) was 0.37 ± 0.04 %ID/g. The tissue uptake at 1 h ([2]; CD1, brain, 1 hour, read-out: injected activity in Brain) was 0.2 ± 0.1 %ID/g, the tissue uptake at 2 min ([2]; CD1, heart, read-out: injected activity in Heart) was 3.45 ± 0.02 %ID/g and the tissue uptake at 1 h ([2]; CD1, heart, 1 hour, read-out: injected activity in Heart) was 1.2 ± 0.2 %ID/g. It also gave a dose excreted at 1 h ([2]; CD1, in vivo, 1 hour, read-out: Excretion) of 12.7 ± 4.2%, a tissue uptake at 2 min ([2]; CD1, intestine, read-out: injected activity in Intestine) of 0.5 ± 0.1 %ID/g and a tissue uptake at 1 h ([2]; CD1, intestine, 1 hour, read-out: injected activity in Intestine) of 1.64 ± 0.07 %ID/g. It also gave a tissue uptake at 2 min ([2]; CD1, kidney, read-out: injected activity in Kidney) of 5 ± 1.5 %ID/g, a tissue uptake at 1 h ([2]; CD1, kidney, 1 hour, read-out: injected activity in Kidney) of 3.3 ± 0.8 %ID/g and a tissue uptake at 2 min ([2]; CD1, liver, read-out: injected activity in Liver) of 16.7 ± 1.1 %ID/g. It also gave a tissue uptake at 1 h ([2]; CD1, liver, 1 hour, read-out: injected activity in Liver) of 21.7 ± 0.9 %ID/g, a tissue uptake at 2 min ([2]; CD1, lung, read-out: injected activity in Lung) of 126 ± 20 %ID/g and a tissue uptake at 1 h ([2]; CD1, lung, 1 hour, read-out: injected activity in Lung) of 51.4 ± 4.4 %ID/g. For the same molecule, the tissue uptake at 2 min ([2]; CD1, muscle, read-out: injected activity in Muscle) was 0.61 ± 0.09 %ID/g, the tissue uptake at 1 h ([2]; CD1, muscle, 1 hour, read-out: injected activity in Muscle) was 0.43 ± 0.03 %ID/g and the tissue uptake at 2 min ([2]; CD1, spleen, read-out: injected activity in Spleen) was 13.6 ± 0.3 %ID/g. It also gave a tissue uptake at 1 h ([2]; CD1, spleen, 1 hour, read-out: injected activity in Spleen) of 10.6 ± 0.4 %ID/g, a tissue uptake at 2 min ([2]; CD1, stomach, read-out: injected activity in Stomach) of 2 ± 0.6 %ID/g and a tissue uptake at 1 h ([2]; CD1, stomach, 1 hour, read-out: injected activity in Stomach) of 9.4 ± 0.2 %ID/g.
